Results on 16 compounds are retold here after ChEMBL document CHEMBL2016438, “Design and synthesis of naphthoquinone derivatives as antiproliferative agents and 20S proteasome inhibitors” (Bioorg Med Chem Lett, 2012).

The test system of assay [1] is DU-145. Nature of the assay: Antiproliferative activity against human DU145 cells at 10 ug/ml. The assay is classed as functional, cell-based.
Assay [2] relates to A549. Nature of the assay: Antiproliferative activity against human A549 cells at 10 ug/ml. The assay is classed as functional, cell-based.
Assay [3] deals with KB. As to the kind of experiment: Antiproliferative activity against human KB cells at 10 ug/ml. Type of assay: functional, cell-based.
The next assay concerns KBVIN. Nature of the assay: Antiproliferative activity against human KBVIN cells at 10 ug/ml. The assay is classed as functional, cell-based.
The nature of assay [4]: Antiproliferative activity against human KBVIN cells. Type of assay: functional, cell-based.
Assay [5] deals with A549. Nature of the assay: Antiproliferative activity against human A549 cells. The assay is classed as functional, cell-based.
The next assay has as its system HeLa-GFP. As to the kind of experiment: Inhibition of proteasome in human HeLa-GFP cells at 10 ug/ml.
The nature of assay [6]: Inhibition of chymotrypsin-like activity of human 20s proteasome.
The test system of assay [7] is DU-145. Nature of the assay: Antiproliferative activity against human DU145 cells. The assay is classed as functional, cell-based.
Assay [8] relates to KB. As to the kind of experiment: Antiproliferative activity against human KB cells. Type of assay: functional, cell-based.

Each structure is given as a SMILES string. The source made the active and inactive calls. The calls are words filed in the database; no cut-off is given here.

Consider `O=C(Nc1ccc(NC2=C(Cl)C(=O)c3ccccc3C2=O)cc1)c1ccccn1`, for which the inhibition result with DU-145 [1], with A549 [2], in the assay on KB [3] and in the assay with KBVIN was “inactive” each time.

Consider `O=C(Nc1ccccn1)c1ccc(NC2=C(Cl)C(=O)c3ccccc3C2=O)cc1`, for which the inhibition result in the assay on DU-145 [1], in the assay with A549 [2], with KB [3] and with KBVIN was “inactive” each time.

A word on the IC50: it is the point on the concentration scale where inhibition reaches its midpoint. A low value points to greater potency. Regarding `O=C1C(Cl)=C(Nc2ccc(S(=O)(=O)Nc3ccccn3)cc2)C(=O)c2ccccc21`, the IC50 in [4] amounted to 11.7 µM; with A549 [5], 12.2 µM; in assay [6], 18.6 µM; in the assay with DU-145 [7], 10.8 µM; in the assay with KB [8], 9.57 µM. Moreover, in the assay with HeLa-GFP, the inhibition entry was “inactive”.

Take `COc1ccc(C(=O)Nc2ccc(NC3=C(Cl)C(=O)c4ccccc4C3=O)cc2)cc1`: the inhibition result in the assay on DU-145 [1], with A549 [2], in the assay with KB [3] and with KBVIN was “inactive” in each case.

For `O=C1C(Cl)=C(Nc2ccc(N3CCOCC3)cc2)C(=O)c2ccccc21`, the IC50 in assay [4] was found to be 14.2 µM; with A549 [5], 18.8 µM; in the assay with DU-145 [7] it was 15.8 µM; in the assay with KB [8], 12.9 µM. The inhibition result in the assay with HeLa-GFP is “inactive”.

Regarding `COc1cc(NC(=O)c2ccc(NC3=C(Cl)C(=O)c4ccccc4C3=O)cc2)cc(OC)c1`, the IC50 in assay [4] was 11.3 µM; with A549 [5] it was 9.64 µM; in the assay on DU-145 [7], 10.5 µM; in the assay with KB [8], 10.4 µM. Moreover, the inhibition result in the assay on HeLa-GFP was “inactive”.

Turning to `O=C1C(Cl)=C(NCCN2CCOCC2)C(=O)c2ccccc21`, the inhibition entry in the assay on DU-145 [1], with A549 [2], in the assay on KB [3] and with KBVIN was “inactive” throughout.

For the compound `O=C1C(Cl)=C(Nc2ccc(C(=O)N3CCOCC3)cc2)C(=O)c2ccccc21`, the IC50 in assay [4] turned out to be 14.5 µM; in the assay on A549 [5], 12.5 µM; in the assay on DU-145 [7] it was 13.7 µM; in the assay with KB [8] it was 14 µM. In addition, the inhibition result in the assay with HeLa-GFP was “inactive”.

For the compound `O=C1C(Cl)=C(NCCCN2CCCC2=O)C(=O)c2ccccc21`, the IC50 in assay [4] is 19.1 µM; with A549 [5], 20.4 µM; in the assay with DU-145 [7], 18.1 µM; with KB [8], 16.2 µM. The inhibition result in the assay with HeLa-GFP was “inactive”.

Regarding `O=C1C(Cl)=C(Nc2ccc([N+](=O)[O-])cc2)C(=O)c2ccccc21`, the IC50 in [4] was 18.3 µM; with A549 [5], 23.2 µM; in assay [6], 3.65 µM; in the assay with DU-145 [7], 18.3 µM; in the assay on KB [8], 16.6 µM. In addition, in the assay with HeLa-GFP, the inhibition entry was “Active”.

Take `O=C1C(Cl)=C(NCCc2cccs2)C(=O)c2ccccc21`: the inhibition entry in the assay with DU-145 [1], in the assay with A549 [2], with KB [3] and in the assay on KBVIN was “inactive” each time.

Turning to `COc1ccc(CC(=O)Nc2ccc(NC3=C(Cl)C(=O)c4ccccc4C3=O)cc2)cc1`, the inhibition result in the assay with DU-145 [1], in the assay with A549 [2], in the assay on KB [3] and in the assay on KBVIN was “inactive” in each case.

Turning to `O=C(NCCc1ccccc1)c1ccc(NC2=C(Cl)C(=O)c3ccccc3C2=O)cc1`, the inhibition entry with DU-145 [1], with A549 [2], with KB [3] and in the assay on KBVIN was “inactive” each time.

For `CC(=O)N[C@@H](CSC(=O)[C@]1([C@@H](O)C(C)C)NC(=O)[C@H](C)[C@@H]1O)C(=O)O` [LACTACYSTIN], in assay [6], the IC50 is 10.1 µM.

Turning to `O=C1C(Cl)=C(Nc2ccc3c(c2)OCO3)C(=O)c2ccccc21`, the inhibition result in the assay with DU-145 [1], with A549 [2], with KB [3] and with KBVIN was “inactive” in each case.

On to `O=C1C(Cl)=C(Nc2ccc(Oc3ccccc3)cc2)C(=O)c2ccccc21`, for which the IC50 turned out to be 1.3 µM in assay [4], 2.9 µM in the assay on A549 [5], 4.55 µM in the assay with DU-145 [7] and 8.12 µM with KB [8]. The inhibition result in the assay with HeLa-GFP was “inactive”.
